Results taken from patent publication US11866518B2, “Bicyclic peptide ligands specific for TSLP” (BicycleTx Limited, priority 2020, dated 2024).
*1 amine or outer side, *2 acyl side, *3 side chain or, on linkers, in order; H or OH if unused. Where a SMILES comes first, the peptide text is derived from it. Bridges are numbered along the chain shown (N, C = ends). TATA = O=C(CC[*:1])N1CN(C(=O)CC[*:2])CN(C(=O)CC[*:3])C1

biological target: TSLP (Homo sapiens, UniProt Q969D9); assay: Human TSLP Surface Plasmon Resonance (SPR) binding assay; parameters: The resulting construct spCD33-6×HN-TEV-hTSLP(29-159)-Avi; 6xHN tag with TEV site (N, cleaved yes); made in house; host or cells: Expi293F cells; conditions: biotinylated human TSLP immobilized on streptavidin chip; 20° C.; steady-state or kinetic 1:1 fit; read-out: hTSLP SPR Kd
Sequence (Q969D9 29-159): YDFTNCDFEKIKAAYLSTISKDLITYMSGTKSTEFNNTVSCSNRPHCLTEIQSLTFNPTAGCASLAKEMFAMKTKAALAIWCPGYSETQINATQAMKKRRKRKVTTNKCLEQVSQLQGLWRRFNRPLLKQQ

SMILES | Kd
CC(C)C[C@@H]1NC(=O)[C@H](Cc2c[nH]c3ccccc23)NC(=O)[C@H](Cc2c[nH]c3ccccc23)NC(=O)[C@H](CC(=O)O)NC(=O)[C@H](CCC(=O)O)NC(=O)[C@@H]2CSCCC(=O)N3CN(CN(C3)C(=O)CCSC[C@@H](C(=O)N[C@@H](C)C(N)=O)NC1=O)C(=O)CCSC[C@H](NC(=O)[C@H](C)N)C(=O)N[C@@H](C(C)C)C(=O)N[C@@H](CC(=O)O)C(=O)N[C@@H](CC(C)C)C(=O)N[C@@H](CC(=O)O)C(=O)N1CCC[C@H]1C(=O)N[C@@H](Cc1c[nH]c3ccccc13)C(=O)N[C@@H](CO)C(=O)N2 [Example 183, A-(SEQ ID NO: 134)-A] (H-ACVDLDPWSCEDWWLCA-NH2; linker 2-10-16 via TATA; N-terminus and C-terminus assumed) | 330 nM
CC(C)C[C@@H]1NC(=O)[C@H](Cc2c[nH]c3ccccc23)NC(=O)[C@H](Cc2c[nH]c3ccccc23)NC(=O)[C@H]([C@@H](C)O)NC(=O)[C@H](CCC(=O)O)NC(=O)[C@@H]2CSCCC(=O)N3CN(CN(C3)C(=O)CCSC[C@H](N)C(=O)N[C@@H]([C@@H](C)O)C(=O)N[C@@H](CCC(=O)O)C(=O)N[C@@H](CC(C)C)C(=O)N[C@@H](CC(=O)O)C(=O)N3CCC[C@H]3C(=O)N[C@@H](Cc3c[nH]c4ccccc34)C(=O)N[C@@H]([C@@H](C)O)C(=O)N2)C(=O)CCSC[C@@H](C(N)=O)NC1=O [Example 185, (SEQ ID NO: 121)] | 260 nM
CC(C)C[C@@H]1NC(=O)[C@H](Cc2c[nH]c3ccccc23)NC(=O)[C@H](Cc2c[nH]c3ccccc23)NC(=O)[C@H](CC(=O)O)NC(=O)[C@@H]2CCCN2C(=O)[C@@H]2CSCCC(=O)N3CN(CN(C3)C(=O)CCSC[C@H](NC(=O)[C@H](CC(C)C)NC(=O)[C@H](CC(=O)O)NC(=O)[C@@H](N)CCCNC(=N)N)C(=O)N[C@@H]([C@@H](C)O)C(=O)N[C@@H](CC(=O)O)C(=O)N[C@@H](CC(C)C)C(=O)N[C@@H](CC(=O)O)C(=O)N3CCC[C@H]3C(=O)N[C@@H](Cc3c[nH]c4ccccc34)C(=O)N[C@@H]([C@@H](C)O)C(=O)N2)C(=O)CCSC[C@@H](C(=O)N[C@@H](C)C(N)=O)NC1=O [Example 189, RDL-(SEQ ID NO: 138)-A] (H-RDLCTDLDPWTCPDWWLCA-NH2; linker 4-12-18 via TATA; N-terminus and C-terminus assumed) | 310 nM
CC(C)C[C@@H]1NC(=O)[C@H](Cc2c[nH]c3ccccc23)NC(=O)[C@H](Cc2c[nH]c3ccccc23)NC(=O)[C@H](CO)NC(=O)[C@H](CO)NC(=O)[C@@H]2CSCCC(=O)N3CN(CN(C3)C(=O)CCSC[C@H](NC(=O)[C@H](CCC(N)=O)NC(=O)[C@H](Cc3c[nH]cn3)NC(=O)[C@@H](NC(=O)[C@H](CC(N)=O)NC(=O)[C@@H](NC(=O)[C@@H](N)CCCNC(=N)N)C(C)C)[C@@H](C)O)C(=O)N[C@@H](CCCNC(=N)N)C(=O)N[C@@H](CC(=O)O)C(=O)N[C@@H](CC(C)C)C(=O)N[C@@H](CC(=O)O)C(=O)N3CCC[C@H]3C(=O)N[C@@H](Cc3c[nH]c4ccccc34)C(=O)N[C@@H]([C@@H](C)O)C(=O)N2)C(=O)CCSC[C@@H](C(=O)N[C@@H](C)C(N)=O)NC1=O [Example 190, RVNTHQ-(SEQ ID NO: 122)-A] | 81 nM
CC(C)C[C@@H]1NC(=O)[C@H](Cc2c[nH]c3ccccc23)NC(=O)[C@@H]2CSCCC(=O)N3CN(CN(C3)C(=O)CCSC[C@@H](C(=O)N[C@@H](C)C(N)=O)NC(=O)[C@@H]3CCCN3C1=O)C(=O)CCSC[C@H](NC(=O)[C@H](C)N)C(=O)N[C@@H](CC(=O)O)C(=O)N[C@@H](Cc1c[nH]c3ccccc13)C(=O)N[C@@H](CCC(N)=O)C(=O)N[C@@H](Cc1c[nH]c3ccccc13)C(=O)N[C@@H](CO)C(=O)N[C@@H](Cc1ccc(O)cc1)C(=O)N[C@@H](CC(=O)O)C(=O)N2 [Example 196, A-(SEQ ID NO: 141)-A] (H-ACDWQWSYDCWLPCA-NH2; linker 2-10-14 via TATA; N-terminus assumed) | 6100 nM
CC(C)C[C@@H]1NC(=O)[C@H](Cc2c[nH]c3ccccc23)NC(=O)[C@@H]2CSCCC(=O)N3CN(CN(C3)C(=O)CCSC[C@@H](C(=O)N[C@@H](C)C(N)=O)NC(=O)[C@@H]3CCCN3C1=O)C(=O)CCSC[C@H](NC(=O)[C@H](C)N)C(=O)N[C@@H](CC(=O)O)C(=O)N[C@@H](Cc1c[nH]c3ccccc13)C(=O)N[C@@H](C(C)C)C(=O)N[C@@H](Cc1c[nH]c3ccccc13)C(=O)N[C@@H](CCC(=O)O)C(=O)N[C@@H](Cc1ccc(O)cc1)C(=O)N[C@@H](CC(=O)O)C(=O)N2 [Example 197, A-(SEQ ID NO: 142)-A] (H-ACDWVWEYDCWLPCA-NH2; linker 2-10-14 via TATA; N-terminus and C-terminus assumed) | 460 nM
CC(C)C[C@@H]1NC(=O)[C@H](Cc2c[nH]c3ccccc23)NC(=O)[C@@H]2CSCCC(=O)N3CN(CN(C3)C(=O)CCSC[C@H](NC(=O)CNC(=O)[C@H](CC(=O)O)NC(=O)[C@H](C)N)C(=O)N[C@@H](CCC(=O)O)C(=O)N[C@@H](Cc3c[nH]c4ccccc34)C(=O)N[C@@H](CC(N)=O)C(=O)N[C@@H](Cc3c[nH]c4ccccc34)C(=O)N[C@@H](C)C(=O)N[C@@H](Cc3ccc(O)cc3)C(=O)N[C@@H](CC(=O)O)C(=O)N2)C(=O)CCSC[C@@H](C(=O)N[C@@H](C)C(N)=O)NC(=O)CNC1=O [Example 201, ADG-(SEQ ID NO: 146)-A] (H-ADGCEWNWAYDCWLGCA-NH2; linker 4-12-16 via TATA; N-terminus and C-terminus assumed) | 170 nM
CSCC[C@@H]1NC(=O)[C@H](Cc2c[nH]c3ccccc23)NC(=O)[C@H](CCCCN)NC(=O)[C@@H](NC(=O)[C@@H](NC(=O)[C@H](CCC(=O)O)NC(=O)[C@H](C)N)[C@@H](C)O)CSCCC(=O)N2CN3CN(C2)C(=O)CCSC[C@H](NC(=O)[C@H](CC(=O)O)NC(=O)[C@H](Cc2ccc(O)cc2)NC(=O)[C@H](CCC(=O)O)NC(=O)[C@H](Cc2c[nH]c4ccccc24)NC1=O)C(=O)N[C@@H](Cc1c[nH]c2ccccc12)C(=O)N[C@@H](CC(C)C)C(=O)N[C@@H](CO)C(=O)N[C@H](C(=O)N[C@@H](C)C(N)=O)CSCCC3=O [Example 204, AET-(SEQ ID NO: 149)-A] (H-AETCKWMWEYDCWLSCA-NH2; linker 4-12-16 via TATA; N-terminus assumed) | 100 nM
CC[C@H](C)[C@H](NC(=O)[C@@H]1CCCN1C(=O)[C@H](C)NC(=O)[C@@H]1CSCCC(=O)N2CN3CN(C2)C(=O)CCSC[C@H](NC(=O)[C@H](CC(=O)O)NC(=O)[C@H](Cc2ccc(O)cc2)NC(=O)[C@H]([C@@H](C)O)NC(=O)[C@H](Cc2c[nH]c4ccccc24)NC(=O)[C@H](CC(N)=O)NC(=O)[C@H](Cc2c[nH]c4ccccc24)NC(=O)[C@H](CC(=O)O)NC(=O)[C@@H](NC(=O)[C@H](C)N)CSCCC3=O)C(=O)N[C@@H](Cc2c[nH]c3ccccc23)C(=O)N[C@@H](CC(C)C)C(=O)N[C@@H](CC(=O)O)C(=O)N1)C(N)=O [Example 206, A-(SEQ ID NO: 151)-API] (H-ACDWNWTYDCWLDCAPI-NH2; linker 2-10-14 via TATA; N-terminus and C-terminus assumed) | 430 nM
CC(C)C[C@@H]1NC(=O)[C@H](Cc2c[nH]c3ccccc23)NC(=O)[C@@H]2CSCCC(=O)N3CN(CN(C3)C(=O)CCSC[C@@H](C(=O)N[C@@H](Cc3ccccc3)C(=O)N[C@@H](C)C(=O)N[C@@H](CCC(=O)O)C(N)=O)NC(=O)[C@@H]3CCCN3C1=O)C(=O)CCSC[C@H](NC(=O)[C@H](C)N)C(=O)N[C@@H](CC(=O)O)C(=O)N[C@@H](Cc1c[nH]c3ccccc13)C(=O)N[C@@H](CC(=O)O)C(=O)N[C@@H](Cc1c[nH]c3ccccc13)C(=O)N[C@@H](CC(=O)O)C(=O)N[C@@H](Cc1ccc(O)cc1)C(=O)N[C@@H](CC(=O)O)C(=O)N2 [Example 208, A-(SEQ ID NO: 153)-FAE] (H-ACDWDWDYDCWLPCFAE-NH2; linker 2-10-14 via TATA; N-terminus assumed) | 340 nM
CC(C)C[C@@H]1NC(=O)[C@H](Cc2c[nH]c3ccccc23)NC(=O)[C@@H]2CSCCC(=O)N3CN(CN(C3)C(=O)CCSC[C@H](NC(=O)[C@H](CCC(=O)O)NC(=O)[C@H](Cc3c[nH]cn3)NC(=O)[C@H](Cc3c[nH]cn3)NC(=O)[C@H](CCC(N)=O)NC(=O)[C@H](CCC(=O)O)NC(=O)[C@@H](N)CC(=O)O)C(=O)N[C@@H](CC(=O)O)C(=O)N[C@@H](Cc3c[nH]c4ccccc34)C(=O)N[C@@H](Cc3c[nH]cn3)C(=O)N[C@@H](Cc3c[nH]c4ccccc34)C(=O)N[C@@H](CCC(=O)O)C(=O)N[C@@H](Cc3ccc(O)cc3)C(=O)N[C@@H](CC(=O)O)C(=O)N2)C(=O)CCSC[C@@H](C(=O)N[C@@H](C)C(N)=O)NC(=O)[C@H](CO)NC1=O [Example 209, DEQHHE-(SEQ ID NO: 144)-A] | 910 nM
CC(C)C[C@@H]1NC(=O)[C@H](Cc2c[nH]c3ccccc23)NC(=O)[C@@H]2CSCCC(=O)N3CN(CN(C3)C(=O)CCSC[C@H](NC(=O)[C@@H]3CCCN3C(=O)[C@@H]3CCCN3C(=O)[C@H](CCC(=O)O)NC(=O)[C@@H](NC(=O)[C@@H]3CCCN3C(=O)[C@@H](N)CO)[C@@H](C)O)C(=O)N[C@@H](CC(=O)O)C(=O)N[C@@H](Cc3c[nH]c4ccccc34)C(=O)N[C@@H](Cc3c[nH]cn3)C(=O)N[C@@H](Cc3c[nH]c4ccccc34)C(=O)N[C@@H](CCC(=O)O)C(=O)N[C@@H](Cc3ccc(O)cc3)C(=O)N[C@@H](CC(=O)O)C(=O)N2)C(=O)CCSC[C@@H](C(N)=O)NC(=O)[C@H](CO)NC1=O [Example 215, SPTEPP-(SEQ ID NO: 144)] | 240 nM
CC(C)C[C@@H]1NC(=O)[C@H](Cc2c[nH]c3ccccc23)NC(=O)[C@@H]2CSCCC(=O)N3CN(CN(C3)C(=O)CCSC[C@H](NC(=O)[C@H](CCC(=O)O)NC(=O)[C@H](CO)NC(=O)[C@@H]3CCCN3C(=O)[C@H](CO)NC(=O)[C@H](CCCNC(=N)N)NC(=O)[C@@H](N)CC(N)=O)C(=O)N[C@@H](CC(=O)O)C(=O)N[C@@H](Cc3c[nH]c4ccccc34)C(=O)N[C@@H](Cc3c[nH]cn3)C(=O)N[C@@H](Cc3c[nH]c4ccccc34)C(=O)N[C@@H](CCC(=O)O)C(=O)N[C@@H](Cc3ccc(O)cc3)C(=O)N[C@@H](CC(=O)O)C(=O)N2)C(=O)CCSC[C@@H](C(N)=O)NC(=O)[C@H](CO)NC1=O [Example 217, NRSPSE-(SEQ ID NO: 144)] | 860 nM
